Measurements from ChEMBL document CHEMBL3885861, “Open TG-GATES”.

Organism: Rattus norvegicus
Assay: Open TG-GATES - Regimen: Single
Type: toxicity, organism-based, Sprague-Dawley
Design: regimen Single, gender Male, age 6 weeks
Details: in vivo, po, 100 mg/kg, route gavage, dose level Low; for APTT / Bas / Eos / Fbg / Hb / Ht / Lym / MCH / MCHC / MCV / Mono / Neu / PT / Plat / RBC / Ret / WBC: tissue Blood; for KIDNEY_L / KIDNEY_R / KIDNEY_TOTAL: tissue Kidney; for LIVER: tissue Liver; for A/G / ALP / ALT / AST / BUN / CRE / Ca / Cl / DBIL / GLC / IP / K / LDH / Na / PL / RALB / TBIL / TC / TG / TP / gamma-GTP: tissue Plasma

## C[C@H]1O[C@H](O[C@H]2[C@H](O)[C@@H](O)[C@@H](O[C@H]3[C@H](O)[C@@H](O)C(O)O[C@@H]3CO)O[C@@H]2CO)[C@H](O)[C@@H](O)[C@@H]1N[C@H]1C=C(CO)[C@@H](O)[C@H](O)[C@H]1O (some centres not stated) [ACARBOSE]
3 h
  TERMINAL_BW: 197.7 g
  APTT: 16.7 s
  Bas: 0.2%
  Eos: 0.8%
  Fbg: 274.6 mg/dL
  Hb: 13.5 g/dL
  Ht: 41.3%
  Lym: 78.4%
  MCH: 21.1 pg
  MCHC: 32.6%
  MCV: 64.8 fL
  Mono: 2%
  Neu: 17.8%
  PT: 13.6 s
  Plat: 118.3 x10_4/uL
  RBC: 639 x10_4/ul
  Ret: 8.2%
  WBC: 89.6 x10_2/uL
  KIDNEY_L: 0.9 g
  KIDNEY_R: 0.9 g
  KIDNEY_TOTAL: 1.8 g
  LIVER: 8.5 g
  A/G: 0.9
  ALP: 1409.6 IU/L
  ALT: 39.2 IU/L
  AST: 77.6 IU/L
  BUN: 10.4 mg/dL
  CRE: 0.2 mg/dL
  Ca: 10.7 mg/dL
  Cl: 104.6 meq/L
  DBIL: 0.004 mg/dL
  GLC: 172.2 mg/dL
  IP: 9.9 mg/dL
  K: 3.8 meq/L
  LDH: 60 IU/L
  Na: 141.2 meq/L
  PL: 136.4 mg/dL
  RALB: 2.5 g/dL
  TBIL: 0.062 mg/dL
  TC: 75.4 mg/dL
  TG: 39.2 mg/dL
  TP: 5.1 g/dL
  gamma-GTP: 1 IU/L
6 h
  TERMINAL_BW: 198.1 g
  APTT: 16 s
  Bas: 0%
  Eos: 1%
  Fbg: 307.2 mg/dL
  Hb: 13.4 g/dL
  Ht: 41.5%
  Lym: 78.2%
  MCH: 21 pg
  MCHC: 32.3%
  MCV: 65.1 fL
  Mono: 2.2%
  Neu: 17.8%
  PT: 13.3 s
  Plat: 117.7 x10_4/uL
  RBC: 636.8 x10_4/ul
  Ret: 8.8%
  WBC: 81.3 x10_2/uL
  KIDNEY_L: 0.9 g
  KIDNEY_R: 0.9 g
  KIDNEY_TOTAL: 1.9 g
  LIVER: 8.3 g
  A/G: 0.9
  ALP: 1322 IU/L
  ALT: 34.6 IU/L
  AST: 67.8 IU/L
  BUN: 8.4 mg/dL
  CRE: 0.2 mg/dL
  Ca: 10.8 mg/dL
  Cl: 104.2 meq/L
  DBIL: 0.002 mg/dL
  GLC: 168.2 mg/dL
  IP: 10.2 mg/dL
  K: 3.8 meq/L
  LDH: 58.4 IU/L
  Na: 141 meq/L
  PL: 133.8 mg/dL
  RALB: 2.5 g/dL
  TBIL: 0.062 mg/dL
  TC: 77.2 mg/dL
  TG: 31 mg/dL
  TP: 5.2 g/dL
  gamma-GTP: 1 IU/L
9 h
  TERMINAL_BW: 195.5 g
  APTT: 16.9 s
  Bas: 0%
  Eos: 0.8%
  Fbg: 303.8 mg/dL
  Hb: 13 g/dL
  Ht: 40.5%
  Lym: 77.4%
  MCH: 20.6 pg
  MCHC: 32.2%
  MCV: 63.9 fL
  Mono: 2.6%
  Neu: 18.4%
  PT: 13.4 s
  Plat: 124.4 x10_4/uL
  RBC: 634.4 x10_4/ul
  Ret: 8.3%
  WBC: 71.6 x10_2/uL
  KIDNEY_L: 0.9 g
  KIDNEY_R: 0.9 g
  KIDNEY_TOTAL: 1.8 g
  LIVER: 7.9 g
  A/G: 0.9
  ALP: 1274 IU/L
  ALT: 35.8 IU/L
  AST: 68.4 IU/L
  BUN: 8 mg/dL
  CRE: 0.2 mg/dL
  Ca: 10.6 mg/dL
  Cl: 105 meq/L
  DBIL: 0 mg/dL
  GLC: 178.2 mg/dL
  IP: 10 mg/dL
  K: 3.9 meq/L
  LDH: 64.2 IU/L
  Na: 141.6 meq/L
  PL: 150.4 mg/dL
  RALB: 2.5 g/dL
  TBIL: 0.058 mg/dL
  TC: 85.4 mg/dL
  TG: 61.6 mg/dL
  TP: 5.3 g/dL
  gamma-GTP: 1 IU/L
24 h
  TERMINAL_BW: 213.3 g
  APTT: 17.6 s
  Bas: 0%
  Eos: 1%
  Fbg: 286.2 mg/dL
  Hb: 13.4 g/dL
  Ht: 41%
  Lym: 76.4%
  MCH: 20.9 pg
  MCHC: 32.7%
  MCV: 63.9 fL
  Mono: 2.6%
  Neu: 19.2%
  PT: 13 s
  Plat: 114.1 x10_4/uL
  RBC: 641.4 x10_4/ul
  Ret: 7.9%
  WBC: 97.3 x10_2/uL
  KIDNEY_L: 0.9 g
  KIDNEY_R: 0.9 g
  KIDNEY_TOTAL: 1.9 g
  LIVER: 10.2 g
  A/G: 0.9
  ALP: 1382.4 IU/L
  ALT: 44.6 IU/L
  AST: 74 IU/L
  BUN: 14.4 mg/dL
  CRE: 0.2 mg/dL
  Ca: 10.9 mg/dL
  Cl: 105.4 meq/L
  DBIL: 0.008 mg/dL
  GLC: 170.8 mg/dL
  IP: 8.3 mg/dL
  K: 4.1 meq/L
  LDH: 57.8 IU/L
  Na: 142.6 meq/L
  PL: 140.8 mg/dL
  RALB: 2.6 g/dL
  TBIL: 0.056 mg/dL
  TC: 72.6 mg/dL
  TG: 76.2 mg/dL
  TP: 5.5 g/dL
  gamma-GTP: 1 IU/L
